Data published in ChEMBL document CHEMBL5303573, “Mapping human microbiome drug metabolism by gut bacteria and their genes” (Nature, 2019).

Assay: The drug is tested on Bifidobacterium breve strain: DSM20213 for biotransformation. The drug concentrations were measured before and after a 12-h incubation by liquid-chromatography-coupled mass spectrometry (LC–MS)
Conditions: 2 µM

Compound | Bacterial Biotransformation
CSc1ccc2c(c1)C(N1CCN(C)CC1)Cc1ccccc1S2.O=C(O)/C=C\C(=O)O (stereo not drawn) | Compound metabolized
CN1CCC[C@@H]1CCO[C@](C)(c1ccccc1)c1ccc(Cl)cc1.O=C(O)/C=C/C(=O)O [CLEMASTINE FUMARATE] | Compound NOT metabolized
CC(C(=O)O)c1ccc2c(c1)Cc1cccnc1O2 (stereo not drawn) [PRANOPROFEN] | Compound metabolized

Assay: The drug is tested on Collinsella intestinalis strain: DSM13280 for biotransformation. The drug concentrations were measured before and after a 12-h incubation by liquid-chromatography-coupled mass spectrometry (LC–MS)
Conditions: 2 µM

Compound | Bacterial Biotransformation
CSc1ccc2c(c1)C(N1CCN(C)CC1)Cc1ccccc1S2.O=C(O)/C=C\C(=O)O (stereo not drawn) | Compound NOT metabolized
CN1CCC[C@@H]1CCO[C@](C)(c1ccccc1)c1ccc(Cl)cc1.O=C(O)/C=C/C(=O)O [CLEMASTINE FUMARATE] | Compound NOT metabolized

Assay: The drug is tested on Bacteroides cellulosilyticus strain: DSM14838 for biotransformation. The drug concentrations were measured before and after a 12-h incubation by liquid-chromatography-coupled mass spectrometry (LC–MS)
Conditions: 2 µM

Compound | Bacterial Biotransformation
CSc1ccc2c(c1)C(N1CCN(C)CC1)Cc1ccccc1S2.O=C(O)/C=C\C(=O)O (stereo not drawn) | Compound NOT metabolized
CN1CCC[C@@H]1CCO[C@](C)(c1ccccc1)c1ccc(Cl)cc1.O=C(O)/C=C/C(=O)O [CLEMASTINE FUMARATE] | Compound metabolized
CC(C(=O)O)c1ccc2c(c1)Cc1cccnc1O2 (stereo not drawn) [PRANOPROFEN] | Compound metabolized

Assay: The drug is tested on Bacteroides fragilis strain: HMW610 for biotransformation. The drug concentrations were measured before and after a 12-h incubation by liquid-chromatography-coupled mass spectrometry (LC–MS)
Conditions: 2 µM

Compound | Bacterial Biotransformation
CSc1ccc2c(c1)C(N1CCN(C)CC1)Cc1ccccc1S2.O=C(O)/C=C\C(=O)O (stereo not drawn) | Compound NOT metabolized
CN1CCC[C@@H]1CCO[C@](C)(c1ccccc1)c1ccc(Cl)cc1.O=C(O)/C=C/C(=O)O [CLEMASTINE FUMARATE] | Compound metabolized
CC(C(=O)O)c1ccc2c(c1)Cc1cccnc1O2 (stereo not drawn) [PRANOPROFEN] | Compound metabolized

Assay: The drug is tested on Bacteroides vulgatus strain: ATCC8482 for biotransformation. The drug concentrations were measured before and after a 12-h incubation by liquid-chromatography-coupled mass spectrometry (LC–MS)
Conditions: phocaeicola vulgatus, 2 µM

Compound | Bacterial Biotransformation
CSc1ccc2c(c1)C(N1CCN(C)CC1)Cc1ccccc1S2.O=C(O)/C=C\C(=O)O (stereo not drawn) | Compound NOT metabolized
CN1CCC[C@@H]1CCO[C@](C)(c1ccccc1)c1ccc(Cl)cc1.O=C(O)/C=C/C(=O)O [CLEMASTINE FUMARATE] | Compound metabolized
CC(C(=O)O)c1ccc2c(c1)Cc1cccnc1O2 (stereo not drawn) [PRANOPROFEN] | Compound metabolized

Assay: The drug is tested on Bacteroides sp. WH2 strain: WH2 for biotransformation. The drug concentrations were measured before and after a 12-h incubation by liquid-chromatography-coupled mass spectrometry (LC–MS)
Conditions: bacteroides sp. wh2, 12 h, 2 µM

Compound | Bacterial Biotransformation
CSc1ccc2c(c1)C(N1CCN(C)CC1)Cc1ccccc1S2.O=C(O)/C=C\C(=O)O (stereo not drawn) | Compound NOT metabolized
CC(C(=O)O)c1ccc2c(c1)Cc1cccnc1O2 (stereo not drawn) [PRANOPROFEN] | Compound metabolized

Assay: The drug is tested on Blautia hansenii strain: DSM20583 for biotransformation. The drug concentrations were measured before and after a 12-h incubation by liquid-chromatography-coupled mass spectrometry (LC–MS)
Conditions: 2 µM

Compound | Bacterial Biotransformation
CSc1ccc2c(c1)C(N1CCN(C)CC1)Cc1ccccc1S2.O=C(O)/C=C\C(=O)O (stereo not drawn) | Compound NOT metabolized
CN1CCC[C@@H]1CCO[C@](C)(c1ccccc1)c1ccc(Cl)cc1.O=C(O)/C=C/C(=O)O [CLEMASTINE FUMARATE] | Compound metabolized
CC(C(=O)O)c1ccc2c(c1)Cc1cccnc1O2 (stereo not drawn) [PRANOPROFEN] | Compound metabolized

Assay: The drug is tested on Blautia luti strain: DSM14534 for biotransformation. The drug concentrations were measured before and after a 12-h incubation by liquid-chromatography-coupled mass spectrometry (LC–MS)
Type: ADME
Parameters: dose 2 uM, timepoint 0 vs 12 hours
Conditions: 2 µM

Compound | Bacterial Biotransformation
CSc1ccc2c(c1)C(N1CCN(C)CC1)Cc1ccccc1S2.O=C(O)/C=C\C(=O)O (stereo not drawn) | Compound NOT metabolized
CN1CCC[C@@H]1CCO[C@](C)(c1ccccc1)c1ccc(Cl)cc1.O=C(O)/C=C/C(=O)O [CLEMASTINE FUMARATE] | Compound NOT metabolized
CC(C(=O)O)c1ccc2c(c1)Cc1cccnc1O2 (stereo not drawn) [PRANOPROFEN] | Compound NOT metabolized

Assay: The drug is tested on Clostridium asparagiforme strain: DSM15981 for biotransformation. The drug concentrations were measured before and after a 12-h incubation by liquid-chromatography-coupled mass spectrometry (LC–MS)
Type: ADME
Parameters: dose 2 uM, timepoint 0 vs 12 hours
Conditions: enterocloster asparagiformis, 2 µM

Compound | Bacterial Biotransformation
CSc1ccc2c(c1)C(N1CCN(C)CC1)Cc1ccccc1S2.O=C(O)/C=C\C(=O)O (stereo not drawn) | Compound NOT metabolized
CN1CCC[C@@H]1CCO[C@](C)(c1ccccc1)c1ccc(Cl)cc1.O=C(O)/C=C/C(=O)O [CLEMASTINE FUMARATE] | Compound NOT metabolized
CC(C(=O)O)c1ccc2c(c1)Cc1cccnc1O2 (stereo not drawn) [PRANOPROFEN] | Compound NOT metabolized

Assay: The drug is tested on Dorea formicigenerans strain: ATCC27755 for biotransformation. The drug concentrations were measured before and after a 12-h incubation by liquid-chromatography-coupled mass spectrometry (LC–MS)
Conditions: 2 µM

Compound | Bacterial Biotransformation
CSc1ccc2c(c1)C(N1CCN(C)CC1)Cc1ccccc1S2.O=C(O)/C=C\C(=O)O (stereo not drawn) | Compound NOT metabolized
CN1CCC[C@@H]1CCO[C@](C)(c1ccccc1)c1ccc(Cl)cc1.O=C(O)/C=C/C(=O)O [CLEMASTINE FUMARATE] | Compound NOT metabolized
CC(C(=O)O)c1ccc2c(c1)Cc1cccnc1O2 (stereo not drawn) [PRANOPROFEN] | Compound metabolized

Assay: The drug is tested on Eubacterium ventriosum strain: ATCC27560 for biotransformation. The drug concentrations were measured before and after a 12-h incubation by liquid-chromatography-coupled mass spectrometry (LC–MS)
Type: ADME
Parameters: dose 2 uM, timepoint 0 vs 12 hours
Conditions: 2 µM

Compound | Bacterial Biotransformation
CSc1ccc2c(c1)C(N1CCN(C)CC1)Cc1ccccc1S2.O=C(O)/C=C\C(=O)O (stereo not drawn) | Compound NOT metabolized
CN1CCC[C@@H]1CCO[C@](C)(c1ccccc1)c1ccc(Cl)cc1.O=C(O)/C=C/C(=O)O [CLEMASTINE FUMARATE] | Compound NOT metabolized
CC(C(=O)O)c1ccc2c(c1)Cc1cccnc1O2 (stereo not drawn) [PRANOPROFEN] | Compound metabolized

Assay: The drug is tested on Subdoligranulum variabile strain: DSM15176 for biotransformation. The drug concentrations were measured before and after a 12-h incubation by liquid-chromatography-coupled mass spectrometry (LC–MS)
Conditions: 2 µM

Compound | Bacterial Biotransformation
CSc1ccc2c(c1)C(N1CCN(C)CC1)Cc1ccccc1S2.O=C(O)/C=C\C(=O)O (stereo not drawn) | Compound NOT metabolized
CN1CCC[C@@H]1CCO[C@](C)(c1ccccc1)c1ccc(Cl)cc1.O=C(O)/C=C/C(=O)O [CLEMASTINE FUMARATE] | Compound NOT metabolized
CC(C(=O)O)c1ccc2c(c1)Cc1cccnc1O2 (stereo not drawn) [PRANOPROFEN] | Compound NOT metabolized

Assay: The drug is tested on Escherichia coli strain: BW25113 for biotransformation. The drug concentrations were measured before and after a 12-h incubation by liquid-chromatography-coupled mass spectrometry (LC–MS)
Conditions: 2 µM

Compound | Bacterial Biotransformation
CN1CCC[C@@H]1CCO[C@](C)(c1ccccc1)c1ccc(Cl)cc1.O=C(O)/C=C/C(=O)O [CLEMASTINE FUMARATE] | Compound metabolized
CC(C(=O)O)c1ccc2c(c1)Cc1cccnc1O2 (stereo not drawn) [PRANOPROFEN] | Compound metabolized

Conditions: bacteroides eggerthii, 12 h, 2 µM
Description: The drug is tested on Bacteroides eggerthii strain: DSM20697 for biotransformation. The drug concentrations were measured before and after a 12-h incubation by liquid-chromatography-coupled mass spectrometry (LC–MS)

Compound | Bacterial Biotransformation
CSc1ccc2c(c1)C(N1CCN(C)CC1)Cc1ccccc1S2.O=C(O)/C=C\C(=O)O (stereo not drawn) | Compound NOT metabolized
CN1CCC[C@@H]1CCO[C@](C)(c1ccccc1)c1ccc(Cl)cc1.O=C(O)/C=C/C(=O)O [CLEMASTINE FUMARATE] | Compound metabolized
CC(C(=O)O)c1ccc2c(c1)Cc1cccnc1O2 (stereo not drawn) [PRANOPROFEN] | Compound metabolized

Conditions: bacteroides thetaiotaomicron, 12 h, 2 µM
Description: The drug is tested on Bacteroides thetaiotaomicron strain: VPI-5482 for biotransformation. The drug concentrations were measured before and after a 12-h incubation by liquid-chromatography-coupled mass spectrometry (LC–MS)

Compound | Bacterial Biotransformation
CSc1ccc2c(c1)C(N1CCN(C)CC1)Cc1ccccc1S2.O=C(O)/C=C\C(=O)O (stereo not drawn) | Compound NOT metabolized
CN1CCC[C@@H]1CCO[C@](C)(c1ccccc1)c1ccc(Cl)cc1.O=C(O)/C=C/C(=O)O [CLEMASTINE FUMARATE] | Compound NOT metabolized
CC(C(=O)O)c1ccc2c(c1)Cc1cccnc1O2 (stereo not drawn) [PRANOPROFEN] | Compound metabolized

Conditions: bacteroides thetaiotaomicron, 12 h, 2 µM
Remark: another data set of the same source
Description: The drug is tested on Bacteroides thetaiotaomicron strain: 7330 for biotransformation. The drug concentrations were measured before and after a 12-h incubation by liquid-chromatography-coupled mass spectrometry (LC–MS)

Compound | Bacterial Biotransformation
CSc1ccc2c(c1)C(N1CCN(C)CC1)Cc1ccccc1S2.O=C(O)/C=C\C(=O)O (stereo not drawn) | Compound NOT metabolized
CN1CCC[C@@H]1CCO[C@](C)(c1ccccc1)c1ccc(Cl)cc1.O=C(O)/C=C/C(=O)O [CLEMASTINE FUMARATE] | Compound metabolized
CC(C(=O)O)c1ccc2c(c1)Cc1cccnc1O2 (stereo not drawn) [PRANOPROFEN] | Compound metabolized

Conditions: segatella copri, 12 h, 2 µM
Description: The drug is tested on Prevotella copri strain: DSM18205 for biotransformation. The drug concentrations were measured before and after a 12-h incubation by liquid-chromatography-coupled mass spectrometry (LC–MS)

Compound | Bacterial Biotransformation
CSc1ccc2c(c1)C(N1CCN(C)CC1)Cc1ccccc1S2.O=C(O)/C=C\C(=O)O (stereo not drawn) | Compound metabolized
CN1CCC[C@@H]1CCO[C@](C)(c1ccccc1)c1ccc(Cl)cc1.O=C(O)/C=C/C(=O)O [CLEMASTINE FUMARATE] | Compound metabolized
CC(C(=O)O)c1ccc2c(c1)Cc1cccnc1O2 (stereo not drawn) [PRANOPROFEN] | Compound metabolized

Conditions: roseburia intestinalis, 12 h, 2 µM
Description: The drug is tested on Roseburia intestinalis strain: L1-82 for biotransformation. The drug concentrations were measured before and after a 12-h incubation by liquid-chromatography-coupled mass spectrometry (LC–MS)

Compound | Bacterial Biotransformation
CSc1ccc2c(c1)C(N1CCN(C)CC1)Cc1ccccc1S2.O=C(O)/C=C\C(=O)O (stereo not drawn) | Compound NOT metabolized
CN1CCC[C@@H]1CCO[C@](C)(c1ccccc1)c1ccc(Cl)cc1.O=C(O)/C=C/C(=O)O [CLEMASTINE FUMARATE] | Compound metabolized
CC(C(=O)O)c1ccc2c(c1)Cc1cccnc1O2 (stereo not drawn) [PRANOPROFEN] | Compound NOT metabolized

Conditions: akkermansia muciniphila, 12 h, 2 µM
Description: The drug is tested on Akkermansia muciniphila strain: ATCC BAA-835 for biotransformation. The drug concentrations were measured before and after a 12-h incubation by liquid-chromatography-coupled mass spectrometry (LC–MS)

Compound | Bacterial Biotransformation
CSc1ccc2c(c1)C(N1CCN(C)CC1)Cc1ccccc1S2.O=C(O)/C=C\C(=O)O (stereo not drawn) | Compound NOT metabolized
CC(C(=O)O)c1ccc2c(c1)Cc1cccnc1O2 (stereo not drawn) [PRANOPROFEN] | Compound metabolized
